This is an account of results in patent US20220401369A1, “SOLID DISPERSION OF PAN-RAF KINASE INHIBITOR” (DAY ONE BIOPHARMACEUTICALS, INC., priority 2019, published 2022).

A short description of series [1]: Solubility (24 h, 37° C.) in JP1 and JP2. It counts as physicochemical. Conditions: thermodynamic from solid.
Series [2] in a line: Polymer screening by DSC (miscibility of Compound 1 in polymer). It counts as physicochemical. The protocol:
Differential Scanning calorimetry (DSC) and Oil bath methods were applied to study solid dispersions comprising Compound 1. DSC is applied for the prediction of miscibility and solubility of Compound 1 in polymer.
Pure crystalline drug Compound 1 was physically mixed with each pure polymer. The equilibrium solution temperature (Tend) and Enthalpy (H) of Compound 1 in each 20% Compound 1 loaded physical mixture (PM) were measured for polymer screening by DSC (Discovery™ DSC, TA Instruments) with following steps;
−20° C. to over MP (melting point) of Compound 1 (206° C.) @1° C./min
From the endothermic peak of DSC, H and Tend were analyzed, and the change ratio A E between pure Compound 1 and PM was defined as miscibility parameters (Eq. 1). […] Therefore, the lower A E means the higher miscibility.

Where [3] appears, read: 20% Compound 1 loaded physical mixture with polymer, pure Compound 1 as reference.

Structures are written as SMILES. In brackets after ≈: the same amount, converted by molar mass. Like-named read-outs stand apart in the source and are kept apart here.

As for `C[C@@H](NC(=O)c1ncnc(N)c1Cl)c1ncc(C(=O)Nc2cc(C(F)(F)F)c(Cl)cn2)s1` [Compound 1, (R)-2-(1-(6-amino-5-chloropyrimidine-4-carboxamido)ethyl)-N-(5-chloro-4-(trifluoromethyl)pyridin-2-yl)thiazole-5-carboxamide], the solubility at 24 h in series [1] (aqueous buffer, JP2 (pH 6.8), Table 2, read-out: Solubility JP2) is 1.1 µg/mL (≈ 2.17 µM); in series [1] (simulated gastric fluid, JP1 (pH 1.2), Table 2, read-out: Solubility JP1) it was 3.4 µg/mL (≈ 6.72 µM). In addition, the “DSC H (enthalpy)” value in series [2] (setting [3]) amounted to 102.52 J/g. Moreover, the “DSC Tend (equilibrium solution temperature)” value in series [2] (setting [3]) worked out at 209.958 °C. Moreover, in series [2] (20% Compound 1 loaded physical mixture, lower ΔE means higher miscibility), the “DSC ΔE (miscibility parameter)” value is given as 2.00.

In general, solubility refers to the concentration that dissolves in the medium under given conditions.
